This note sets out measurements from US20140200215A1, “LYSOPHOSPHATIDIC ACID RECEPTOR ANTAGONISTS” (INTERMUNE, INC., priority 2013, published 2014).

Format in all cases: cell-based
Test [1] relates to primary fibroblasts (including lung, dermal), HFL-1, 3T3 and CHO cells expressing LPA1R. Nature of the test: LPA1 migration assay (Oris cell migration). To be noted: inhibition of cell migration in response to chemoattractant (LPA, serum). From the text:
Migration of primary fibroblasts (including lung, dermal), HFL-1, 3T3 and CHO cells expressing LPA1R were monitored using the Oris™ assay (Platypus Technologies, Madison, Wis.). These cells were dye (Cell Tracker Green™) loaded and serum starved for 12-24 hrs. In response to chemoattractants such as LPA and serum, the cells migrated inward in to the exclusion (detection) zone. After fixing, fluorescent cells in the detection zone were counted using a high content reader. The ability of LPA1 antagonists to inhibit cell migration is quantified by plotting cell number vs. compound concentration and curve fitting the resulting dose-response curve to a 4 parameter logistic function.

For test [2], the target named is T1, Human LPA1 (Homo sapiens, UniProt Q92633). Nature of the test: LPA1 calcium flux assay. Details: the full-length cDNA for human LPA1 is obtained by PCR of the reverse transcription reaction; expressed in transfected cells. To be noted: human LPA1 expressing CHO cells, stimulated with 10 nM LPA; read-out: Ca Flux LPA1 IC50. Here is the method:
Establishment of a CHO Cell Line Stably Expressing Human LPA1
A 1.1 kb cDNA encoding the human LPA1 receptor is cloned from human lung. Human lung RNA (Clontech Laboratories, Inc. USA) is reverse transcribed using the RETROscript kit (Ambion, Inc.) and the full-length cDNA for human LPA1 is obtained by PCR of the reverse transcription reaction. The nucleotide sequence of the cloned human LPA1 is determined by sequencing and is confirmed to be identical to the published human LPA1 sequence (An et al. Biochem. Biophys. Res. Commun. 231:619 (1997). The cDNA is cloned into the pCDNA5 pcDNA5/FRT expression plasmid and is transfected in CHO cells using lipofectamine 2000 (Invitrogen Corp., USA). Clones stably expressing human LPA1 are selected using hygromycin and identified as cells that show Ca-influx in response to LPA.
LPA1 and LPA3 Calcium Flux Assays
Human LPA1 or LPA3 expressing CHO cells were seeded at 20,000-45,000 cells per well in a 96-well poly-D-lysine coated plate one or two days before the assay. Prior to the assay, the cells were washed once with PBS and then cultured in serum-free media overnight. On the day of the assay, a calcium indicator dye (Calcium 4, Molecular Devices) in assay buffer (HBSS with Ca^2+ and Mg^2+ and containing 20 mM Hepes and 0.3% fatty-acid free human serum albumin) was added to each well and incubation continued for 1 hour at 37° C. 10 μl of test compounds in 2.5% DMSO were added to the cells and incubation continued at room temperature for 30 minutes. Cells were then stimulated by the addition of 10 nM LPA and intracellular Ca^2+ measured using the Flexstation 3 (Molecular Devices). IC50, were determined using Graphpad prism analysis of drug titration curves.

Test [3] has as its target T1, Human LPA1. Briefly: Beta-Arrestin based assay for human LPA1R antagonists (PathHunter). The settings on record: CHO cells expressing ProLink tagged human LPA1R; antagonist mode, 0.5 micromolar LPA. Here is the method:
Beta-Arrestin Based Assays for Human LPA1R Antagonists and Agonists
A CHO cell line stably expressing the ProLink™ tagged human LPA1R was obtained from DiscoverX Inc, Fremont, Calif. In this system, β-Arrestin was fused to an N-terminal deletion mutant of β-galactosidase (termed the enzyme acceptor or EA), the human LPA1R was fused to a smaller (42 amino acids) weakly complementing fragment termed ProLink™. […] Cell handling and assays were performed according to protocols specified in the PathHunter® assays kits (DiscoverX, Fremont, Calif.). Assays were performed in quadruplicate in white 384 well plates. End point luminescence data were plotted and fit to a 4 parameter logistic function to obtain IC50 values. For antagonist assays, an […] concentration of agonist (LPA) equal to 0.5 micromolar was used.

T1 sequence (Q92633 whole entry): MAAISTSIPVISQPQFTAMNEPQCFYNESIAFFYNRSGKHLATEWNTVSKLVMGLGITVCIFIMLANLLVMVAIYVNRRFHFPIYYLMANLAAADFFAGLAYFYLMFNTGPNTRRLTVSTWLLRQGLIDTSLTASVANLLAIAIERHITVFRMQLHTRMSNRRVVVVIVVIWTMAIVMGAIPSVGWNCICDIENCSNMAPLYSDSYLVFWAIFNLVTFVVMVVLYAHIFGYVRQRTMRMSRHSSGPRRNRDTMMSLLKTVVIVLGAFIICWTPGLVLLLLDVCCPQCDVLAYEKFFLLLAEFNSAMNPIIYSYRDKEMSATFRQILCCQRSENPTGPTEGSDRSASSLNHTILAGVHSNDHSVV

For the compound `CC(=O)N1CCn2c(nc(-c3ccc(-c4ccc(C5(C(=O)O)CC5)cc4)cc3)c2NC(=O)O[C@H](C)c2ccccc2)C1` [IT020], the 50% effective concentration (EC50) (in test [1]; at Human LPA1 [3]) was > 500 nM each time. The IC50 (as a rule, the concentration that inhibits the measured activity by half) at Human LPA1 [2] was > 500 nM.
For the compound `Cc1noc(-c2ccc(-c3ccc(C4(C(=O)O)CCOCC4)cc3)c(F)c2)c1NC(=O)O[C@H](C)c1ccccc1` [IT028], the EC50 (in test [1]; at Human LPA1 [3]) was < 50 nM in each case. Also, at Human LPA1 [2], the IC50 is < 50 nM.
On to `Cc1noc(C#Cc2cc3sc(C4(C(=O)O)CC4)cc3s2)c1NC(=O)O[C@H](C)c1ccccc1Cl` [IT047], for which the EC50 (in test [1]; on Human LPA1 [3]) was < 50 nM each time. In addition, the IC50 at Human LPA1 [2] was in the range of 50 to 500 nM.
Consider `Cc1noc(-c2cc(F)c(-c3ccc(C4(C(=O)O)CCOCC4)cc3)cc2F)c1NC(=O)O[C@H](C)c1ccccc1` [IT029], for which the EC50 (usually the concentration at which the effect is half-maximal) in test [1] is 50 to 500 nM; at Human LPA1 [3] it was < 50 nM. For the same compound, the IC50 on Human LPA1 [2] lay within 50 to 500 nM.
Consider `Cc1nsc(C#Cc2cc3sc(C4(C(=O)O)CC4)cc3s2)c1NC(=O)O[C@H](C)c1ccccc1` [IT034], for which the EC50 in test [1] was 50 to 500 nM; at Human LPA1 [3], < 50 nM. In addition, on Human LPA1 [2], the IC50 lay in the range of 50 to 500 nM.
In the case of `C[C@@H](OC(=O)Nc1c(C#Cc2cc3sc(C4(C(=O)O)CC4)cc3s2)nnn1C)c1ccccc1` [IT069], the concentration giving a half-maximal response (EC50) in test [1] is 50 to 500 nM; at Human LPA1 [3], < 50 nM. At Human LPA1 [2], the IC50 is < 50 nM.
In the case of `C[C@@H](OC(=O)Nc1c(-c2ccc(-c3ccc(C4(C(=O)O)CC4)cc3)cc2)nc2cccnn12)c1ccccc1` [IT041], the concentration giving a half-maximal response (EC50) (in test [1]; at Human LPA1 [3]) was > 500 nM in each case. Besides, the IC50 on Human LPA1 [2] is 50 to 500 nM.
`C[C@@H](OC(=O)Nc1c(C2CCC(c3ccc(C4(C(=O)O)CC4)cc3)CC2)cnn1C)c1ccccc1` (stereo partly shown) [IT066]: the EC50 in test [1] was > 500 nM; on Human LPA1 [3], 50 to 500 nM. The IC50 at Human LPA1 [2] fell in the range of 50 to 500 nM.
Take `C[C@@H](OC(=O)Nc1c(-c2ccc(C#CC3(C(=O)O)CC3)cc2)cnn1C)c1ccccc1` [IT018]: the EC50 (in test [1]; on Human LPA1 [3]) was > 500 nM throughout. The IC50 on Human LPA1 [2] was > 500 nM.
On to `C[C@@H](OC(=O)Nc1c(-c2ccc(-c3ccc(C4(C(=O)O)CC4)cc3)cc2)nc2ncccn12)c1ccccc1` [IT043], for which the EC50 in test [1] is 50 to 500 nM; at Human LPA1 [3] it was < 50 nM. Further, the IC50 at Human LPA1 [2] fell in the range of 50 to 500 nM.
On to `C[C@@H](OC(=O)Nc1c(CCc2cc3sc(C4(C(=O)O)CC4)cc3s2)cnn1C)c1ccccc1` [IT099], for which the EC50 in test [1] is > 500 nM; on Human LPA1 [3], 50 to 500 nM. Besides, the IC50 on Human LPA1 [2] was > 500 nM.
For `C[C@@H](OC(=O)Nc1c(-c2cc(F)c(-c3cc4sc(C5(C(=O)O)CC5)cc4s3)cc2F)nnn1C)c1ccccc1` [IT071], the results for the half-maximal effective concentration (EC50) (in test [1]; at Human LPA1 [3]) were 50 to 500 nM and < 50 nM, respectively. The IC50 at Human LPA1 [2] is 50 to 500 nM.
For `C[C@@H](OC(=O)Nc1c(C#Cc2cc3sc(C4(C(=O)OCOC(=O)C(C)(C)C)CC4)cc3s2)cnn1C)c1ccccc1` [IT087], the EC50 (in test [1]; at Human LPA1 [3]) was < 50 nM in each case.
As for `Cc1nsc(-c2ccc([C@H]3CC[C@H](C(=O)O)CC3)cc2)c1NC(=O)O[C@H](C)c1ccccc1` [IT008], the EC50 (in test [1]; at Human LPA1 [3]) was > 500 nM throughout.
Take `Cc1noc(C#Cc2ccc3cc(CC4(C(=O)O)CC4)ccc3c2)c1NC(=O)O[C@H](C)c1ccccc1` [IT065]: the EC50 was > 500 nM in test [1] and 50 to 500 nM on Human LPA1 [3].
The corresponding values for `Cc1noc(-c2ccc(-c3ccc4c(c3)NC(=O)CC4C(=O)O)cc2)c1NC(=O)O[C@H](C)c1ccccc1` (stereo partly shown) [IT011] are > 500 nM and 50 to 500 nM.
For `C[C@@H](OC(=O)Nc1c(C#Cc2cc3sc(C4(C(=O)NS(C)(=O)=O)CC4)cc3s2)cnn1C)c1ccccc1` [IT098] the same measures were < 50 nM and < 50 nM.
Turning to `Cc1nsc(-c2ccc(C3CCC(C4(C(=O)O)CC4)CC3)cc2)c1NC(=O)O[C@H](C)c1ccccc1` (stereo partly shown) [IT091], the results for the EC50 (in test [1]; at Human LPA1 [3]) were > 500 nM and 50 to 500 nM, respectively.
The corresponding values for `C[C@@H](OC(=O)Nc1c(C(F)(F)F)nnn1-c1ccc(-c2ccc(C3(C(=O)O)CC3)cc2)cc1)c1ccccc1` [IT072] are > 500 nM and < 50 nM.
For `Cc1nsc(-c2ccc(N3CCC(CC(=O)O)CC3)cc2)c1NC(=O)O[C@H](C)c1ccccc1` [IT068] the same measures were > 500 nM and > 500 nM.
For `Cc1nsc(-c2ccc(-c3cc4sc(C(=O)O)cc4s3)cc2)c1NC(=O)O[C@H](C)c1ccccc1` [IT025] the same measures were > 500 nM and > 500 nM.
On to `C[C@@H](OC(=O)Nc1c(C#Cc2cc3sc(C4(CO)CC4)cc3s2)cnn1C)c1ccccc1` [IT083], for which the EC50 (in test [1]; on Human LPA1 [3]) was > 500 nM throughout.
With `C[C@@H](OC(=O)Nc1c(-c2cc(F)c(-c3ccc(C4(C(=O)O)CCOCC4)cc3)cc2F)cnn1C)c1ccccc1` [IT044], the EC50 is 50 to 500 nM in test [1] and < 50 nM at Human LPA1 [3].
Regarding `CC(C)OC(=O)C1(c2cc3sc(C#Cc4cnn(C)c4NC(=O)O[C@H](C)c4ccccc4)cc3s2)CC1` [IT086], the values for the EC50 (in test [1]; on Human LPA1 [3]) were > 500 nM and 50 to 500 nM, respectively.
The corresponding values for `Cc1noc(-c2ccc(-c3ccc(C4(C(=O)O)CC4)cc3)cc2)c1NC(=O)O[C@@H]1CCCc2ccccc21` (single isomer, unassigned) [IT057] are > 500 nM and > 500 nM.
For `C[C@@H](OC(=O)Nc1c(-c2ccc(C#CC3(C(=O)O)CC3)cc2)nnn1C)c1ccccc1` [IT036] the same measures were > 500 nM and > 500 nM.
The corresponding values for `C[C@@H](OC(=O)N(C)c1c(C#Cc2cc3sc(C4(C(=O)O)CC4)cc3s2)cnn1C)c1ccccc1` [IT097] are > 500 nM and 50 to 500 nM.
On to `COc1ccccc1OC(=O)C1(c2cc3sc(C#Cc4cnn(C)c4NC(=O)O[C@H](C)c4ccccc4)cc3s2)CC1` [IT088], for which the EC50 was 50 to 500 nM in test [1] and < 50 nM at Human LPA1 [3].
The corresponding values for `CCN1CCn2c(nc(-c3ccc(-c4ccc(C5(C(=O)O)CC5)cc4)cc3)c2NC(=O)O[C@H](C)c2ccccc2)C1` [IT024] are > 500 nM and > 500 nM.
The corresponding values for `Cc1noc(C#Cc2ccc(C3(CC(=O)O)CC3)cc2)c1NC(=O)O[C@H](C)c1ccccc1` [IT002] are 50 to 500 nM and 50 to 500 nM.
Take `Cc1nsc(-c2cc(F)c(-c3ccc(C4(C(=O)O)CCOCC4)cc3)cc2F)c1NC(=O)O[C@H](C)c1ccccc1` [IT042]: the figures for the EC50 (in test [1]; on Human LPA1 [3]) were 50 to 500 nM and < 50 nM, respectively.
For `Cc1nsc(-c2ccc([C@H]3CC[C@@H](C(=O)O)CC3)cc2)c1NC(=O)O[C@H](C)c1ccccc1` [IT007] the same measures were > 500 nM and > 500 nM.
For `Cc1noc(-c2ccc(-c3ccc(C4(C(=O)O)CC4)cc3)cc2)c1NC(=O)O[C@H]1CCCc2ccccc21` (single isomer, unassigned) [IT058] the same measures were > 500 nM and > 500 nM.
For `COCCOC(=O)C1(c2cc3sc(C#Cc4cnn(C)c4NC(=O)O[C@H](C)c4ccccc4)cc3s2)CC1` [IT084] the same measures were 50 to 500 nM and < 50 nM.
As for `Cc1nsc(C2CCC(c3ccc(C4(C(=O)O)CC4)cc3)CC2)c1NC(=O)O[C@H](C)c1ccccc1` (single isomer, unassigned) [IT059], the EC50 in test [1] is > 500 nM; at Human LPA1 [3] it was 50 to 500 nM.
